Measurements from ChEMBL document CHEMBL1134839, “Methylene-gem-difluorocyclopropane analogues of nucleosides: synthesis, cyclopropene-methylenecyclopropane rearrangement, and biological activity” (2001).

Experiments:
MC-38 = assay: The compound was tested for antitumor activity against mouse tumor C38 cells; type: functional
[1] = The compound was tested for antitumor activity against normal cells (fibroblast); type: functional, Homo sapiens
[2] = The compound was tested for antitumor activity against human tumor H15 cells; type: functional
[3] = The compound was tested for antitumor activity against human colon tumor H116 cells; type: functional
[4] = The compound was tested for antitumor activity against mouse tumor M17/Adr cells; type: functional
[5] = The compound was tested for antitumor activity against L1210 cells; type: functional, Mus musculus

Work on `Nc1ncnc2c1ncn2/C=C1/C(CO)C1(F)F` (configuration not stated) yielded an Activity (MC-38) of 580, an Activity [1] of 500 and an Activity [2] of 550. The Activity [3] was 550, the Activity [4] was 590 and the Activity [5] was 660.

For `Nc1ncnc2c1ncn2/C=C1/CC1CO` (configuration not stated), the Activity (MC-38) was 600, the Activity [1] was 130 and the Activity [3] was 160. For the same compound, the Activity [4] was 460 and the Activity [5] was 570.

`Nc1ncnc2c1ncn2/C=C1\C(CO)C1(F)F` (configuration not stated) showed an Activity (MC-38) of 470, an Activity [1] of 130 and an Activity [2] of 300. For the same compound, the Activity [3] was 200, the Activity [4] was 370 and the Activity [5] was 420.
